Test results reported in patent US9850258B2, “Substituted tetrahydrocarbazole and carbazole carboxamide compounds” (BRISTOL-MYERS SQUIBB COMPANY, priority 2013, dated 2017).
Like-named read-outs stand apart in the source and are kept apart here.

How the values were obtained:
Jak2 tyrosine kinase = Jak2 tyrosine kinase (Homo sapiens (Human), UniProt O60674); assay: Jak2 Tyrosine Kinase Assay; assay type: biochemical; conditions: for IC50: Jak2 tyrosine kinase, ATP 30 μM
[1] = system: CD69 expression on B cells in human whole blood; assay: Whole Blood Assay of BCR-Stimulated CD69 Expression on B Cells; assay type: cell-based
human recombinant Btk = human recombinant Btk (Homo sapiens (Human), UniProt Q06187); assay: Human Recombinant Btk Enzyme Assay; assay type: biochemical
Sequence of human recombinant Btk (Q06187 whole entry): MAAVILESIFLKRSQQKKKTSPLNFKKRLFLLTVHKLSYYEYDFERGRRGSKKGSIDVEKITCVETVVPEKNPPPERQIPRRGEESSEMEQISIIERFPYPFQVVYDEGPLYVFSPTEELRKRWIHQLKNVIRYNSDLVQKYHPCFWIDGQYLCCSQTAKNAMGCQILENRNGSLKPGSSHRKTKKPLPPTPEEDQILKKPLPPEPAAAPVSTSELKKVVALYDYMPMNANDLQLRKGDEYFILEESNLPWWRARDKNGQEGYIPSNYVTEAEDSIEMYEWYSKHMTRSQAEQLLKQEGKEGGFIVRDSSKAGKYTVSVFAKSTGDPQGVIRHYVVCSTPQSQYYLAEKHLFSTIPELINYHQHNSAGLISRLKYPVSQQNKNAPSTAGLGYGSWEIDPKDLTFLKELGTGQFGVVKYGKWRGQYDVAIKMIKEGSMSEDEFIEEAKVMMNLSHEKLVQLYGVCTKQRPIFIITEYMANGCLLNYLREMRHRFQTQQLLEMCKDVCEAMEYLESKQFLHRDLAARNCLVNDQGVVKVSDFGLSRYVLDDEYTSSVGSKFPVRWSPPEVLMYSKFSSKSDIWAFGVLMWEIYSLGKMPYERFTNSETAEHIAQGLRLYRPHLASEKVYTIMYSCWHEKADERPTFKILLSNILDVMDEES

Sequence of Jak2 tyrosine kinase (O60674 whole entry): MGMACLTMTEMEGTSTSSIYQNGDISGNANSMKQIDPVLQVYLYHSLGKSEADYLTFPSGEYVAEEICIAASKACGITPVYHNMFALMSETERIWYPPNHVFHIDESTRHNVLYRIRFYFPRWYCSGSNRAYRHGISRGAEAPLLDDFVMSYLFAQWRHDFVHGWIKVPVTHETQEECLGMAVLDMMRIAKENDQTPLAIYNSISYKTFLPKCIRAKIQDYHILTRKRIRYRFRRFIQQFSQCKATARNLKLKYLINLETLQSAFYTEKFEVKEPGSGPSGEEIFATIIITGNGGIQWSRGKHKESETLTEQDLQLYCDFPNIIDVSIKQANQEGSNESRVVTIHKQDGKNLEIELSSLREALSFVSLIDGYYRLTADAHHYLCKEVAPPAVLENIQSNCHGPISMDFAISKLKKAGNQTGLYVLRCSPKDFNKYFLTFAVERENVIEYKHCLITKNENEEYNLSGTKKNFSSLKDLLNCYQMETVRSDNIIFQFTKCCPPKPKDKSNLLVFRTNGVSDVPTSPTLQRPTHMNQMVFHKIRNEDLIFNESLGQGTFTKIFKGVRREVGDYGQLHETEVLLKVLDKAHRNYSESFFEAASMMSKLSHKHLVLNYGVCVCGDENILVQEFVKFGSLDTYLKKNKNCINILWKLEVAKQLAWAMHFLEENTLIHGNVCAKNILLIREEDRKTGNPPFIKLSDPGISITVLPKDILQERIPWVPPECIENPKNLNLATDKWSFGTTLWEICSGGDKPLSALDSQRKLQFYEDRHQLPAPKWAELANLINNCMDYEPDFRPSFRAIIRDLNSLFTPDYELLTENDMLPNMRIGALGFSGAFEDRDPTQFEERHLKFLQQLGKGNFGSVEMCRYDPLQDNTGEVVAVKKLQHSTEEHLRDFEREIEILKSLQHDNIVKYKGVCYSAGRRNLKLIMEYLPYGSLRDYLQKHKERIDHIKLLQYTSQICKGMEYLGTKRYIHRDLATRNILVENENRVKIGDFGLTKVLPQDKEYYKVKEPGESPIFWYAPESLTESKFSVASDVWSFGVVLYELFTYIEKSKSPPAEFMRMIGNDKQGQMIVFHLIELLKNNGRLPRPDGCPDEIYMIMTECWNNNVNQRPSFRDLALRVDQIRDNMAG

Row | IC50 (Jak2 tyrosine kinase) | IC50 [1] | IC50 (human recombinant Btk) | Ratio of Jak2/Btk IC50 values (Jak2 tyrosine kinase; selectivity of Btk over Jak2) | IC50 ([1]; Homo sapiens, B-cell) | Ratio of Jak2/Btk IC50 values (Jak2 tyrosine kinase; kinase selectivity of Btk over Jak2, larger value = more selective for Btk) | SMILES
1 | 0.79 µM |  | 0.00066 µM |  |  |  | Cc1cc(C(N)=O)c2[nH]c3cc(C(C)(C)O)ccc3c2c1-c1cccc(-n2c(=O)c3cccc(F)c3n(C)c2=O)c1C (atropisomer, axis not shown) [Example 29, 4-(R)-(3-(S)-(8-Fluoro-1-methyl-2,4-dioxo-1,2-dihydroquinazolin-3(4H)-yl)-2-methylphenyl)-7-(2-hydroxypropan-2-yl)-3-methyl-9H-carbazole-1-carboxamide]
2 |  |  |  |  | 0.021 µM |  | Cc1c(-c2c(F)cc(C(N)=O)c3[nH]c4cc(C(C)(C)O)ccc4c23)cccc1-n1c(=O)[nH]c2c(F)cc(F)cc2c1=O (single isomer, unassigned) [Example 73]
3 | 1.8 µM |  | 0.00033 µM | 5500 |  |  | Cc1c(-c2c(Cl)cc(C(N)=O)c3[nH]c4cc(C(C)(C)O)ccc4c23)cccc1-n1c(=O)ccn(-c2ccc(F)cc2)c1=O [Example 24, 3-Chloro-4-(R)-(3-(3-(4-fluorophenyl)-2,6-dioxo-2,3-dihydropyrimidin-(6H)-yl)-2-methylphenyl)-7-(2-hydroxypropan-2-yl)-9H-carbazole-1-carboxamide]
4 |  |  | 0.002 µM |  |  |  | Cn1c(=O)n(-c2cccc(-c3c(Cl)cc(C(N)=O)c4[nH]c5cc(C(C)(C)O)ccc5c34)c2Cl)c(=O)c2ccccc21 [Example 42, 3-Chloro-4-(2-chloro-3-(1-methyl-2,4-dioxo-1,2-dihydroquinazolin-3(4H)-yl)phenyl)-7-(2-hydroxypropan-2-yl)-9H-carbazole-1-carboxamide]
5 |  |  | 0.00047 µM |  |  |  | Cn1c(=O)n(-c2cccc(-c3c(Cl)cc(C(N)=O)c4[nH]c5cc(C(C)(C)O)ccc5c34)c2Cl)c(=O)c2ccccc21 [Example 43, 3-Chloro-4-(R)-(2-chloro-3-(1-methyl-2,4-dioxo-1,2-dihydroquinazolin-3(4H)-yl)phenyl)-7-(2-hydroxypropan-2-yl)-9H-carbazole-1-carboxamide]
6 |  |  | 0.0047 µM |  |  |  | Cn1c(=O)n(-c2cccc(-c3c(Cl)cc(C(N)=O)c4[nH]c5cc(C(C)(C)O)ccc5c34)c2Cl)c(=O)c2cccc(F)c21 [Example 44, 3-Chloro-4-(2-chloro-3-(8-fluoro-1-methyl-2,4-dioxo-1,2-dihydroquinazolin-3(4H)-yl)phenyl)-7-(2-hydroxypropan-2-yl)-9H-carbazole-1-carboxamide]
7 | 1.8 µM |  | 0.00035 µM | 5100 |  |  | CC(C)(O)c1ccc2c(c1)[nH]c1c(C(N)=O)cc(Cl)c(-c3cccc(-n4c(=O)[nH]c5c(F)cccc5c4=O)c3Cl)c12 [Example 47, 3-Chloro-4-(R)-(2-chloro-3-(8-fluoro-2,4-dioxo-1,2-dihydroquinazolin-3(4H)-yl)phenyl)-7-(2-hydroxypropan-2-yl)-9H-carbazole-1-carboxamide]

Further lines, the compound ahead of its results:

Row | SMILES | IC50 (Jak2 tyrosine kinase) | IC50 [1] | IC50 (human recombinant Btk) | Ratio of Jak2/Btk IC50 values (Jak2 tyrosine kinase; selectivity of Btk over Jak2) | IC50 ([1]; Homo sapiens, B-cell) | Ratio of Jak2/Btk IC50 values (Jak2 tyrosine kinase; kinase selectivity of Btk over Jak2, larger value = more selective for Btk)
8 | Cc1c(-c2c(F)cc(C(N)=O)c3[nH]c4cc(C(C)(C)O)ccc4c23)cccc1-n1c(=O)c2cccc(F)c2n(C)c1=O (atropisomer, axis not shown) [Example 18, 3-Fluoro-4-(3-(S)-(8-fluoro-1-methyl-2,4-dioxo-1,2-dihydroquinazolin-3(4H)-yl)-2-methylphenyl)-7-(2-hydroxypropan-2-yl)-9H-carbazole-1-carboxamide] | 2.2 µM |  |  |  |  | 
9 | Cc1c(-c2c(F)cc(C(N)=O)c3[nH]c4cc(C(C)(C)O)ccc4c23)cccc1-n1c(=O)c2cccc(F)c2n(C)c1=O (atropisomer, axis not shown) [Example 19, 3-Fluoro-4-(R)-(3-(S)-(8-fluoro-1-methyl-2,4-dioxo-1,2-dihydroquinazolin-3(4H)-yl)-2-methylphenyl)-7-(2-hydroxypropan-2-yl)-9H-carbazole-1-carboxamide] | 2 µM | 0.091 µM |  |  |  | 
10 | Cc1c(-c2c(Cl)cc(C(N)=O)c3[nH]c4cc(C(C)(C)O)ccc4c23)cccc1-n1c(=O)[nH]c2c(F)cc(F)cc2c1=O (racemic) [Example 10, 3-Chloro-4-(RS)-(3-(RS)-(6,8-difluoro-2,4-dioxo-1,2-dihydroquinazolin-3(4H)-yl)-2-methylphenyl)-7-(2-hydroxypropan-2-yl)-9H-carbazole-1-carboxamide] | > 2 µM |  | 0.00083 µM | >2400 |  | 
11 | Cc1nc(C(N)=O)c2[nH]c3cc(C(C)(C)O)ccc3c2c1-c1cccc(-n2cnc3ccccc3c2=O)c1C [Comparative Example 76, 7-(2-Hydroxypropan-2-yl)-3-methyl-4-(2-methyl-3-(4-oxoquinazolin-3(4H)-yl)phenyl)-9H-pyrido[3,4-b]indole-1-carboxamide, reference compound] |  |  |  |  |  | 29
12 | Cc1c(-c2c(Cl)cc(C(N)=O)c3[nH]c4cc(C(C)(C)O)ccc4c23)cccc1-n1c(=O)c2ccccc2n(C)c1=O [Example 3, 3-Chloro-7-(2-hydroxypropan-2-yl)-4-(R)-(2-methyl-3-(1-methyl-2,4-dioxo-1,2-dihydroquinazolin-3(4H)-yl)phenyl)-9H-carbazole-1-carboxamide] | 2 µM |  | 0.001 µM | 2000 |  | 
13 | Cc1c(-c2c(Cl)cc(C(N)=O)c3[nH]c4cc(C(C)(C)O)ccc4c23)cccc1-n1c(=O)c2cccc(C)c2n(C)c1=O [Example 4, 3-Chloro-4-(R)-(3-(1,8-dimethyl-2,4-dioxo-1,2-dihydroquinazolin-3(4H)-yl)-2-methylphenyl)-7-(2-hydroxypropan-2-yl)-9H-carbazole-1-carboxamide] | 0.35 µM |  | 0.0013 µM | 270 |  | 
14 | COc1cccc2c(=O)n(-c3cccc(-c4c(Cl)cc(C(N)=O)c5[nH]c6cc(C(C)(C)O)ccc6c45)c3C)c(=O)n(C)c12 [Example 7, 3-Chloro-7-(2-hydroxypropan-2-yl)-4-(R)-(3-(8-methoxy-1-methyl-2,4-dioxo-1,2-dihydroquinazolin-3(4H)-yl)-2-methylphenyl)-9H-carbazole-1-carboxamide] | 1.6 µM |  | 0.00081 µM | 2000 |  | 
15 | Cc1c(-c2c(Cl)cc(C(N)=O)c3[nH]c4cc(C(C)(C)O)ccc4c23)cccc1-n1c(=O)c2cc(F)ccc2n(C)c1=O [Example 8, 3-Chloro-4-(R)-(3-(6-fluoro-1-methyl-2,4-dioxo-1,2-dihydroquinazolin-3(4H)-yl)-2-methylphenyl)-7-(2-hydroxypropan-2-yl)-9H-carbazole-1-carboxamide] | > 2 µM |  | 0.00065 µM | >3100 |  | 
16 | Cc1c(-c2c(Cl)cc(C(N)=O)c3[nH]c4cc(C(C)(C)O)ccc4c23)cccc1-n1c(=O)c2ccc(F)cc2n(C)c1=O [Example 9, 3-Chloro-4-(R)-(3-(7-fluoro-1-methyl-2,4-dioxo-1,2-dihydroquinazolin-3(4H)-yl)-2-methylphenyl)-7-(2-hydroxypropan-2-yl)-9H-carbazole-1-carboxamide] | > 2 µM |  | 0.00062 µM | >3200 |  | 
17 | Cc1c(-c2c(F)cc(C(N)=O)c3[nH]c4cc(C(C)(C)O)ccc4c23)cccc1-n1c(=O)c2cccc(F)c2n(C)c1=O [Example 17, 3-Fluoro-4-(3-(8-fluoro-1-methyl-2,4-dioxo-1,2-dihydroquinazolin-3(4H)-yl)-2-methylphenyl)-7-(2-hydroxypropan-2-yl)-9H-carbazole-1-carboxamide] | 0.17 µM |  |  |  |  | 
18 | Cc1c(-c2c(F)cc(C(N)=O)c3[nH]c4cc(C(C)(C)O)ccc4c23)cccc1-n1c(=O)[nH]c2c(F)cccc2c1=O [Example 20, 3-Fluoro-4-(3-(8-fluoro-2,4-dioxo-1,2-dihydroquinazolin-3(4H)-yl)-2-methylphenyl)-7-(2-hydroxypropan-2-yl)-9H-carbazole-1-carboxamide] | 1.2 µM |  | 0.00046 µM | 2600 |  | 
19 | Cc1c(-c2c(Cl)cc(C(N)=O)c3[nH]c4cc(C(C)(C)O)ccc4c23)cccc1-n1c(=O)ccn(-c2ccc(F)cc2)c1=O [Example 23, 3-Chloro-4-(3-(3-(4-fluorophenyl)-2,6-dioxo-2,3-dihydropyrimidin-1(6H)-yl)-2-methylphenyl)-7-(2-hydroxypropan-2-yl)-9H-carbazole-1-carboxamide] | 0.44 µM |  | 0.00044 µM | 1000 |  | 
